Test results published in US20240360148A1 (SUVALENT THERAPEUTICS, INC., priority 2021, published 2024).

How the values were obtained:
SAE1 [1] = target: SAE1 (Homo sapiens (Human), UniProt Q9UBT2); test: SAE High Throughput Biochemical Assay (HTRF), 15 min preincubation; conditions: SAE1 12.5 nM, ATP 100 μM
Outline: (§1)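 SAE1 (12.5 nM) was preincubated with compound for 15 min at RT in HEPES pH 7.5, 0.1% BSA, 10 mM MgCl2. The reaction was then started with SUMO-GST and UBC9-His (40 nM each) plus 100 μM ATP for 45 min. After KF stop, HTRF (anti-GST-XL665/anti-His-EuK) was read at 2 h and overnight; some compounds were tested singly at 25 micromolar as percent of control.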

[2] = system: sumoylation levels (SUMO 2/3 conjugates) in HCT-116 cells; test: HCT-116 4 Hour Cell Assay (Western, SUMO 2/3 conjugates); assay type: cell-based; conditions: Homo sapiens, HCT-116, 4 h, 4 h treatment, Anti-Sumo 2-3 immunoblot, read-out: HCT-116 Western 4 h IC50 (μM) Ave
Outline: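 Cells treated 4 h with 11 three-fold dilutions from 25 μM; lysed in RIPA with NEM and Benzonase. Non-reducing SDS-PAGE immunoblot with anti-SUMO 2/3 mAb, IRDye fluorescent detection; conjugate signal normalized to total protein stain, IC50 from quantified bands.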

SAE1 [3] = target: SAE1 (Homo sapiens (Human), UniProt Q9UBE0+Q9UBT2); test: SAE High Throughput Biochemical Assay (HTRF), 15 min preincubation; conditions: read-out: 15 min preincubation HTRF IC50 (μM) Ave, SAE1 12.5 nM, ATP 100 μM
Outline: as §1

[4] = Plasma protein binding, equilibrium dialysis, mouse plasma; assay type: in vitro ADME; conditions: 5 hours at 37° C., read-out: PPB % bound Mouse (converted)
Experimental: The compounds of interest were evaluated for various PK parameters. Specifically CACO permeability/efflux and plasma protein binding (PPP) were determined. Stock solutions were prepared at 10 mM in DMSO for test and reference compounds. Aliquots of the stock solution were diluted to 500× of final concentration (0.5 mM) with DMSO, then further diluted upon the addition of bank PE3-buffer to 20× of final concentration (20 μM). Then test and reference compounds were prepared in plasma at 1 μM. For 0 hour incubation: 25 μL of the plasma spiked with test and reference compounds was transferred into a 96-well sample preparation plate, and then 25 μL blank PB-buffer was added. The samples were quenched by 200 μL of IS solution to prepare [Initial]0h samples. For 5 hours incubation: 100 μL of the plasma spiking with test and reference compounds was loaded on donor side, and 100 μL of blank PB-buffer were loaded on receiver side of the equilibrium dialysis device. Samples were incubated in an air-bath shaker (60 rpm) for 5 hours at 37° C. After 5 hours incubation, 25 μL of samples (from both the donor sides and receiver sides of the dialysis apparatus) was aspirated and added into new sample preparation plates, separately. 25 μL of blank PB-buffer was added to donor side samples and 25 μL of blank plasma was added to receiver side samples to balance the matrix. The samples were quenched with 200 μL of IS solution. The assay plate was shaken at the vibrator (Hangzhou Allsheng, MX100-4A) for 10 min (600 rpm) and then centrifuged at 5,594×g for 15 min (Thermo Multifuge×3R). An aliquot of the 50 μL supernatant was taken from each well and diluted by 50 μL distilled water, then analyzed by UPLC-MS/MS.

Sequence of SAE1 (Homo sapiens (Human), UniProt Q9UBT2) (Q9UBE0 whole entry): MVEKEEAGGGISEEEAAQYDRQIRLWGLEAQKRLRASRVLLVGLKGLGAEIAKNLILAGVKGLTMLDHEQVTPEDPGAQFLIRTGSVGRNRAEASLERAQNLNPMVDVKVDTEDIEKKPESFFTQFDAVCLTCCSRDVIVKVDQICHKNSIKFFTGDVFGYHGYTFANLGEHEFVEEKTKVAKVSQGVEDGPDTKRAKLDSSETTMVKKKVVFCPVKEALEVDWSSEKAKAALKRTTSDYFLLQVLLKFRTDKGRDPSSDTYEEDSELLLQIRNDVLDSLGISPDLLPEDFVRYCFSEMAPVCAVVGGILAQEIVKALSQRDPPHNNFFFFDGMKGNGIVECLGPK
Sequence of SAE1 (Homo sapiens (Human), UniProt Q9UBT2) (Q9UBT2 whole entry): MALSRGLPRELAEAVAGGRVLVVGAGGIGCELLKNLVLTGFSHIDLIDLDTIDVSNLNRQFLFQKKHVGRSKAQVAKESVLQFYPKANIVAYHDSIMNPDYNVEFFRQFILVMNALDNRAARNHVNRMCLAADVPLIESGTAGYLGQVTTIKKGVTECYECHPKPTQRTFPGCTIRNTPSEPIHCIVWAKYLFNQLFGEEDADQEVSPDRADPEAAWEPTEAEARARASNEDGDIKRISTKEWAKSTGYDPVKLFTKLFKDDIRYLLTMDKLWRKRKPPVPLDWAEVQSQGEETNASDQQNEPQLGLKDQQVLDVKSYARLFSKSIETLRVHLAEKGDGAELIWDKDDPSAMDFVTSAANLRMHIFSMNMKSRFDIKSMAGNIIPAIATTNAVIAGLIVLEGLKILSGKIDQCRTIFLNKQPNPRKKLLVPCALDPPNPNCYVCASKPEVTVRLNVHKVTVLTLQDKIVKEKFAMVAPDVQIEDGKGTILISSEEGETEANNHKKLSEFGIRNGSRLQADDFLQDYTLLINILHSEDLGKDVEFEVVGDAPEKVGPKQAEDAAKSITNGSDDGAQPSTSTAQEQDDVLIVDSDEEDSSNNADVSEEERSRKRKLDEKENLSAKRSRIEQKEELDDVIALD
Sequence of SAE1 (Homo sapiens (Human), UniProt Q9UBE0+Q9UBT2) (Q9UBE0 whole entry): as the sequence (Q9UBE0 whole entry) above
Sequence of SAE1 (Homo sapiens (Human), UniProt Q9UBE0+Q9UBT2) (Q9UBT2 whole entry): as the sequence (Q9UBT2 whole entry) above

IC50 [2]	fraction unbound at 5 h, 1 μM [4]	SMILES	IC50 (SAE1 [1])	IC50 (SAE1 [3])
3.05 µM	–	CCn1cc(-c2ccccc2[C@@H]2CN(C(=O)/C=C/[C@H]3CCCN3C)Cc3sc(C#N)cc32)c(C(F)(F)F)n1 [Example 90, (S)-4-(2-(1-Ethyl-3-(trifluoromethyl)-1 H-pyrazol-4-yl)phenyl)-6-((E)-3-((R)-1-methylpyrrolidin-2-yl)acryloyl)-4,5,6,7-tetrahydrothieno[2,3-c]pyridine-2-carbonitrile]	5680 nM	–
2.72 µM	–	CCn1cc(-c2ccccc2[C@@H]2CN(C(=O)/C=C/[C@@H](C)N)Cc3sc(C#N)cc32)c(C(F)(F)F)n1 [Example 47, (S)-6-((R, E)-4-aminopent-2-enoyl)-4-(2-(1-ethyl-3-(trifluoromethyl)-1 H-pyrazol-4-yl)phenyl)-4,5,6,7-tetrahydrothieno[2,3-c]pyridine-2-carbonitrile]	3370 nM	–
0.197 µM	–	[2H]C([2H])([2H])N(C/C=C/C(=O)N1Cc2sc(C#N)cc2[C@H](c2cccc(F)c2-c2cn(CC)nc2C(F)(F)F)C1)C([2H])([2H])[2H] [Example 48, (S,E)-6-(4-(bis(methyl-d3)amino)but-2-enoyl)-4-(2-(1-ethyl-3-(trifluoromethyl)-1 H-pyrazol-4-yl)-3-fluorophenyl)-4,5,6,7-tetrahydrothieno[2,3-c]pyridine-2-carbonitrile]	1120 nM	–
1.16 µM	–	CCn1cc(-c2ccccc2[C@@H]2CN(C(=O)/C=C/CNC3(C)CC3)Cc3sc(C#N)cc32)c(C(F)(F)F)n1 [Example 94, (S,E)-4-(2-(1-Ethyl-3-(trifluoromethyl)-1H pyrazol-4-yl)phenyl)-6-(4-((1-methylcyclopropyl)amino)but-2-enoyl)-4,5,6,7-tetrahydrothieno[2,3-c]pyridine-2-carbonitrile]	1860 nM	–
3.12 µM	–	CCn1cc(-c2ccccc2[C@@H]2CN(C(=O)C#CC(C)(C)N)Cc3sc(C#N)cc32)c(C(F)(F)F)n1 [Example 134, (S)-6-(4-Amino-4-methylpent-2-ynoyl)-4-(2-(1-ethyl-3-(trifluoromethyl)-1H-pyrazol-4-yl)phenyl)-4,5,6,7-tetrahydrothieno[2,3-c]pyridine-2-carbonitrile]	320 nM	–
1.95 µM	–	CCn1cc(-c2ccccc2[C@@H]2CN(C(=O)/C=C/COC)Cc3sc(C#N)cc32)c(C(F)(F)F)n1 [Example 7, (S, E)-4-(2-(1-Ethyl-3-(trifluoromethyl)-1 H-pyrazol-4-yl)phenyl)-6-(4-methoxybut-2-enoyl)-4,5,6,7-tetrahydrothieno[2,3-c]pyridine-2-carbonitrile]	9310 nM	–
0.69 µM	–	COc1cncnc1-n1cc(-c2ccccc2[C@@H]2CN(C(=O)/C=C/CN(C)C)Cc3sc(C#N)cc32)c(C(F)(F)F)n1 [Example 178, (S,E)-6-(4-(dimethylamino)but-2-enoyl)-4-(2-(1-(5-methoxypyrimidin-4-yl)-3-(trifluoromethyl)-1H pyrazol-4-yl)phenyl)-4,5,6,7-tetrahydrothieno[2,3-c]pyridine-2-carbonitrile]	16700 nM	–
0.285 µM	–	CCn1cc(-c2ccccc2[C@@H]2CN(C(=O)/C=C/C(C)N(C)C)Cc3sc(C#N)cc32)c(C(F)(F)F)n1 (stereo partly shown) [Compound 235]	4150 nM	–
0.321 µM	–	CC(C)n1cc(-c2ccccc2[C@@H]2CN(C(=O)/C=C/CN(C)C)Cc3sc(C#N)cc32)c(C(F)(F)F)n1 [Example 175]	3050 nM	–
0.214 µM	–	CCn1cc(-c2ccccc2[C@@H]2CN(C(=O)/C=C/C(F)(F)F)Cc3sc(C#N)cc32)c(C(F)(F)F)n1 [Example 22, (S, E)-4-(2-(1-ethyl-3-(trifluoromethyl)-1 H-pyrazol-4-yl)phenyl)-6-(4,4,4-trifluorobut-2-enoyl)-4,5,6,7-tetrahydrothieno[2,3-c]pyridine-2-carbonitrile]	390 nM	–
0.356 µM	–	CCn1cc(-c2ccccc2C2CN(C(=O)/C=C/CN(C)C)Cc3sc(C#N)c(Cl)c32)c(C(F)(F)F)n1 (stereo not shown) [Example 214, (E)-3-chloro-6-(4-(dimethylamino)but-2-enoyl)-4-(2-(1-ethyl-3-(trifluoromethyl)-1 H-pyrazol-4-yl)phenyl)-4,5,6,7-tetrahydrothieno[2,3-c]pyridine-2-carbonitrile]	3970 nM	–
0.207 µM	–	[2H]C([2H])([2H])N(C/C=C/C(=O)N1Cc2sc(C#N)cc2[C@H](c2ccccc2-c2cn(CC)nc2C(F)(F)F)C1)C([2H])([2H])[2H] [Example 245, (S,E)-6-(4-(bis(methyl-d3)amino)but-2-enoyl)-4-(2-(1-ethyl-3-(trifluoromethyl)-1 H-pyrazol-4-yl)phenyl)-4,5,6,7-tetrahydrothieno[2,3-c]pyridine-2-carbonitrile]	4150 nM	–

Second part, the compound before the results:

SMILES	IC50 [2]	fraction unbound at 5 h, 1 μM [4]	IC50 (SAE1 [1])	IC50 (SAE1 [3])
CCn1cc(-c2c(F)cccc2[C@@H]2CN(C(=O)/C=C/[C@@H]3CCCN3)Cc3sc(C#N)c(C)c32)c(C(F)(F)F)n1 [Example 249, (S)-4-(2-(1-ethyl-3-(trifluoromethyl)-1 H-pyrazol-4-yl)-3-fluorophenyl)-3-methyl-6-((E)-3-((S)-pyrrolidin-2-yl)acryloyl)-4,5,6,7-tetrahydrothieno[2,3-c]pyridine-2-carbonitrile]	0.169 µM	–	140 nM	–
CCn1cc(-c2c(F)cccc2[C@@H]2CN(C(=O)/C=C\CN(C)C)Cc3sc(C#N)c(C)c32)c(C(F)(F)F)n1 [Compound 223]	0.0473 µM	–	52 nM	–
C=CC(=O)N1Cc2sc(C#N)cc2[C@H](c2cccc(F)c2-c2cn(CC)nc2C(F)(F)F)C1 [Compound 227]	0.057 µM	0.021	–	0.12 µM
CCn1cc(-c2ccccc2[C@@H]2CN(C(=O)/C=C/C3CNC3)Cc3sc(C#N)cc32)c(C(F)(F)F)n1 [Example 108, (S, E)-6-(3-(Azetidin-3-yl)acryloyl)-4-(2-(1-ethyl-3-(trifluoromethyl)-1 H-pyrazol-4-yl)phenyl)-4,5,6,7-tetrahydrothieno[2,3-c]pyridine-2-carbonitrile]	–	–	11000 nM	–
CCn1cc(-c2ccccc2[C@@H]2CN(C(=O)/C=C/C(N)Cc3ccccc3)Cc3sc(C#N)cc32)c(C(F)(F)F)n1 (stereo partly drawn) [Example 44, (4S)-6-((E)-4-amino-5-phenylpent-2-enoyl)-4-(2-(1-ethyl-3-(trifluoromethyl)-1 H-pyrazol-4-yl)phenyl)-4,5,6,7-tetrahydrothieno[2,3-c]pyridine-2-carbonitrile]	–	–	9860 nM	–
CNC/C=C/C(=O)N1Cc2sc(C#N)c(C)c2[C@H](c2cccc(F)c2-c2cn(C)nc2C(F)(F)F)C1 [Example 216, (S,E)-4-(3-fluoro-2-(1-methyl-3-(trifluoromethyl)-1 H-pyrazol-4-yl)phenyl)-3-methyl-6-(4-(methylamino)but-2-enoyl)-4,5,6,7-tetrahydrothieno[2,3-c]pyridine-2-carbonitrile]	0.1 µM	–	180 nM	–
CCn1cc(-c2ccccc2[C@@H]2CN(C(=O)/C=C/CN(C)OC)Cc3sc(C#N)cc32)c(C(F)(F)F)n1 [Example 11, (S, E)-4-(2-(1-Ethyl-3-(trifluoromethyl)-1 H-pyrazol-4-yl)phenyl)-6-(4-(methoxy(methyl)amino)but-2-enoyl)-4,5,6,7-tetrahydrothieno[2,3-c]pyridine-2-carbonitrile]	–	–	> 25000 nM	–
CCn1cc(-c2ccccc2[C@@H]2CN(C(=O)/C=C/[C@H](C)N(C)C)Cc3sc(C#N)cc32)c(C(F)(F)F)n1 [Example 13, (S)-6-((S, E)-4-(dimethylamino)pent-2-enoyl)-4-(2-(1-ethyl-3-(trifluoromethyl)-1 H-pyrazol-4-yl)phenyl)-4,5,6,7-tetrahydrothieno[2,3-c]pyridine-2-carbonitrile]	–	–	6220 nM	–
CCn1cc(-c2cc(C(=O)NC)ccc2C2CN(C(=O)/C=C/CN(C)C)Cc3sc(C#N)cc32)c(C(F)(F)F)n1 (stereo not shown) [Example 208, (E)-4-(2-Cyano-6-(4-(dimethylamino)but-2-enoyl)-4,5,6,7-tetrahydrothieno[2,3-c]pyridin-4-yl)-3-(1-ethyl-3-(trifluoromethyl)-1 H pyrazol-4-yl)-N-methylbenzamide]	–	–	> 25000 nM	–
CCn1cc(-c2c(F)cccc2[C@@H]2CN(C(=O)/C=C\CNC)Cc3sc(C#N)c(C)c32)c(C(F)(F)F)n1 [Compound 225]	0.298 µM	–	34 nM	–
